# Test results as given in patent US10517889B2, “Modulators of SMAD7 expression” (Ionis Pharmaceuticals, Inc., priority 2017, dated 2019).
# Legend:
# [1] = Hematology assays after subcutaneous administration in beagle dogs (Example 8); type: in vivo; conditions: 30 mg/kg subcutaneous days 1, 3, 5, 8, 15, 22, 29
# Protocol: (§1) There were 4 animals per group.
# Blood samples were collected from the cephalic vein or saphenous vein of each animal. About 0.5 mL of blood samples was put into tubes containing the potassium salt of EDTA. Blood obtained from all dog groups was measured using an ADVIA2120i hematology analyzer for measurements of the various blood cells, as well as other hematology markers.
# mouse Smad7 mRNA = assay: Pharmacology: mouse Smad7 mRNA expression in liver, kidney, duodenum, ileum and colon after subcutaneous administration in CD-1 mice (Example 6); type: in vivo; conditions: 50 mg/kg subcutaneous twice weekly for 7 weeks, normalized to GAPDH
# Outline: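 Male CD-1 mice, 8-9 weeks old, got 50 mg/kg oligonucleotide subcutaneously twice weekly (100 mg/kg/week) for 7 weeks, with PBS controls; n=4 per group. At necropsy, Smad7 mRNA in liver, kidney, duodenum, ileum and colon was measured by RT-PCR (probe set HTS7555), normalized to GAPDH; one-way ANOVA with Dunnett's test.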
# [2] = system: human peripheral blood mononuclear cells (PBMCs); assay: Human PBMC activation assay, cytokine levels (IL-10, IL-6, MCP-1, TNF-α) in supernatant after 24 hours (Example 9); conditions: human PBMC supernatant after 24 hours
# [3] = Organ weights after oral gavage in beagle dogs (Example 12); conditions: 200 mg oral gavage for 4 weeks, day 30
# Protocol: Groups of 24-25 week old male beagle dogs were administered 200 mg Ionis human SMAD7 oligonucleotide by oral gavage once a week for 4 weeks. There were 4 animals per group. A control group of dogs received oral administration of distilled water. Dogs were sacrificed on day 30 approximately 48 hours after the final dose and organs and plasma were harvested for further analysis.
# human SMAD7 mRNA = assay: Dose-dependent inhibition of human SMAD7 mRNA expression in A431 cells, oligonucleotide added without transfection (Example 5, Study 1); type: cell-based; conditions: approximately 48 hours
# Outline: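 A431 cells dosed with antisense oligonucleotide at 0.08–20.00 μM by free uptake immediately after plating, 48 h at 37° C. SMAD7 mRNA quantified by qRT-PCR (primer probe set RTS5062), normalised to RiboGreen total RNA. Values are % inhibition versus untreated cells.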
# [4] = Blood chemistry markers after oral gavage in CD-1 mice (Example 7); type: in vivo; conditions: 500 mg/kg oral gavage once daily for 4 weeks, day 30
# Protocol: The objective of this study was to evaluate the tolerability and pharmacodynamics of select Ionis human SMAD7 antisense oligonucleotides in CD-1 mice following 4 weeks of treatment. The mice were administered oligonucleotides by oral gavage.
# Groups of 7-8 week old male CD-1 mice were given an oral gavage dose once daily for 4 weeks of 500 mg/kg of Ionis SMAD7 oligonucleotides. Each group contained 8 mice. One group of male CD-1 mice was administered saline by oral gavage daily.
# Levels of transaminases, albumin, and BUN were measured using a Toshiba 200FR NEO chemistry analyzer (Toshiba Co., Japan).
# [5] = Oligonucleotide concentration in tissues by LC-MS/MS after subcutaneous administration in beagle dogs (Example 8); type: in vivo; conditions: 30 mg/kg subcutaneous, 48 hours after the last dose
# Protocol: as §1
# Oligonucleotide concentrations of both ION 830025 and ION 798781 were detected in various tissues by LC-MS/MS analysis. The results are presented below, expressed as μg/g tissue. The data was collected 48 hours after the last dose.
substance,measurement,setting,value
"790615 (CCAATGAGAATGCTTC; 3-10-3 cEt gapmer, further chemistry not given here) [compound 790615]",Basophils,[1],0.5%
same,Eosinophils,[1],2.6%
same,Hematocrit,[1],45%
same,Hemoglobin,[1],14.5 g/dL
same,Lymphocytes,[1],36%
same,MCH,[1],21.9 pg
same,MCHC,[1],32.5 g/dL
same,MCV,[1],68 fL
same,Monocytes,[1],7.9%
same,Neutrophils,[1],53%
same,PLT,[1],242 ^3/μL
same,RBC,[1],6.6 ^6/L
same,Reticulocytes,[1],0.7%
same,WBC,[1],7.1 ^3/μL
same,"% inhibition of Smad7 mRNA expression (compared to control), Kidney",mouse Smad7 mRNA; kidney,23%
same,"% inhibition of Smad7 mRNA expression (compared to control), Liver",mouse Smad7 mRNA; liver,18%
same,Levels of IL-6,[2]; 0.0128 μM oligonucleotide,3.7 pg/mL
same,Levels of IL-10,[2]; 0.0128 μM oligonucleotide,1.1 pg/mL
same,Levels of MCP-1,[2]; 0.0128 μM oligonucleotide,329.5 pg/mL
same,Levels of TNF-α,[2]; 0.0128 μM oligonucleotide,3.1 pg/mL
same,Levels of IL-6,[2]; 0.064 μM oligonucleotide,3.8 pg/mL
same,Levels of IL-10,[2]; 0.064 μM oligonucleotide,1.6 pg/mL
same,Levels of MCP-1,[2]; 0.064 μM oligonucleotide,281.8 pg/mL
same,Levels of TNF-α,[2]; 0.064 μM oligonucleotide,2.5 pg/mL
same,Levels of IL-6,[2]; 0.32 μM oligonucleotide,6.5 pg/mL
same,Levels of IL-10,[2]; 0.32 μM oligonucleotide,2.4 pg/mL
same,Levels of MCP-1,[2]; 0.32 μM oligonucleotide,424.3 pg/mL
same,Levels of TNF-α,[2]; 0.32 μM oligonucleotide,3.4 pg/mL
same,Levels of IL-6,[2]; 1.6 μM oligonucleotide,9.0 pg/mL
same,Levels of IL-10,[2]; 1.6 μM oligonucleotide,3.1 pg/mL
same,Levels of MCP-1,[2]; 1.6 μM oligonucleotide,495.8 pg/mL
same,Levels of TNF-α,[2]; 1.6 μM oligonucleotide,4.2 pg/mL
same,Levels of IL-6,[2]; 8 μM oligonucleotide,10.0 pg/mL
same,Levels of IL-10,[2]; 8 μM oligonucleotide,1.9 pg/mL
same,Levels of MCP-1,[2]; 8 μM oligonucleotide,449.0 pg/mL
same,Levels of TNF-α,[2]; 8 μM oligonucleotide,4.8 pg/mL
same,Levels of IL-6,[2]; 40 μM oligonucleotide,11.0 pg/mL
same,Levels of IL-10,[2]; 40 μM oligonucleotide,0.8 pg/mL
same,Levels of MCP-1,[2]; 40 μM oligonucleotide,301.9 pg/mL
same,Levels of TNF-α,[2]; 40 μM oligonucleotide,4.8 pg/mL
same,Levels of IL-6,[2]; 200 μM oligonucleotide,22.9 pg/mL
same,Levels of IL-10,[2]; 200 μM oligonucleotide,0.7 pg/mL
same,Levels of MCP-1,[2]; 200 μM oligonucleotide,81.6 pg/mL
same,Levels of TNF-α,[2]; 200 μM oligonucleotide,4.8 pg/mL
same,Kidney weight (% of control),[3],94 % of control
same,Liver weight (% of control),[3],85 % of control
same,Spleen weight (% of control),[3],106 % of control
same,% inhibition of SMAD7 mRNA expression,human SMAD7 mRNA; 0.08 μM,14%
same,% inhibition of SMAD7 mRNA expression,human SMAD7 mRNA; 0.25 μM,43%
same,% inhibition of SMAD7 mRNA expression,human SMAD7 mRNA; 0.74 μM,55%
same,% inhibition of SMAD7 mRNA expression,human SMAD7 mRNA; 2.22 μM,63%
same,% inhibition of SMAD7 mRNA expression,human SMAD7 mRNA; 6.67 μM,70%
same,% inhibition of SMAD7 mRNA expression,human SMAD7 mRNA; 20.00 μM,75%
same,IC50,human SMAD7 mRNA; SMAD7 mRNA,0.7 µM
same,ALT,[4],41 IU/L
same,AST,[4],77 IU/L
same,Albumin,[4],3.3 g/dL
same,BUN,[4],22 mg/dL
same,Bilirubin,[4],0.3 mg/dL
same,"Full length oligonucleotide, Distal colon",[5]; distal colon,17 µg/g
same,"Full length oligonucleotide, Duodenum",[5]; duodenum,17 µg/g
same,"Full length oligonucleotide, Ileum",[5]; ileum,18 µg/g
same,"Full length oligonucleotide, Kidney",[5]; kidney,1156 µg/g
same,"Full length oligonucleotide, Liver",[5]; liver,220 µg/g
same,"Full length oligonucleotide, Proximal colon",[5]; proximal colon,17 µg/g
